According to US9730914B2, “3,5-diaminopyrazole kinase inhibitors” (Axikin Pharmaceuticals, Inc., priority 2014, dated 2017):

Key:
JAK3 = biological target: T1, JAK3 (Homo sapiens, UniProt P52333); assay: Kinase competition binding assay (Kd, qPCR readout), JAK3; conditions: for Kd: Kd class, JAK3, read-out: JAK3 Activity Level; for RCK:JAK3 selectivity ratio: ratio Kd (JAK3): Kd (RCK)
T1 construct: made in house; host or cells: E. coli BL21-derived host (T7 phage) or HEK-293
Outline: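 Kd values were derived from 11-point, 3-fold compound series at 1% DMSO, usually topping at 30,000 nM, with retesting from a lower top when under 0.5 nM. It competed with bead-immobilized ligand for 1 h at room temperature, and the captured kinase was measured by qPCR after elution.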

[1] = biological target: T2, kinase domain protein of RC kinase (RCK) (Homo sapiens, UniProt Q56UN5); assay: Kinase competition binding assay (Kd, qPCR readout), RC kinase; conditions: Kd class, read-out: RCK Activity Level
T2 construct: made in house; host or cells: E. coli BL21-derived host (T7 phage) or HEK-293
T2 sequence (Q56UN5 1061-1324 limits assumed): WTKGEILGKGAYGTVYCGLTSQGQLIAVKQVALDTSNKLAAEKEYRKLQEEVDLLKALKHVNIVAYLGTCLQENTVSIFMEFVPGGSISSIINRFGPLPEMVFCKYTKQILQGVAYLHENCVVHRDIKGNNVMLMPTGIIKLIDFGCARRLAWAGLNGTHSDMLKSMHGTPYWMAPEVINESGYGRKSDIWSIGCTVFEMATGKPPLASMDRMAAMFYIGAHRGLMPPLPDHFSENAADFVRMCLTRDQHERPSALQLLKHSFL
Outline: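 Competition binding: DNA-tagged kinase (T7 phage or HEK-293-expressed) plus immobilized biotinylated ligand beads and compound, 1 h at room temperature, 1% DMSO. Bead-bound kinase eluted and quantified by qPCR. Kd from 11-point 3-fold dilution, top 30,000 nM, retested lower if below 0.5 nM.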

JAK2 = biological target: T3, JAK2 (Homo sapiens, UniProt O60674); assay: Kinase competition binding assay (Kd, qPCR readout), JAK2; conditions: for Kd: Kd class, JAK2, read-out: JAK2 Activity Level; for RCK:JAK2 selectivity ratio: ratio Kd (JAK2): Kd(RCK)
T3 construct: made in house; host or cells: E. coli BL21-derived host (T7 phage) or HEK-293
T3 sequence (O60674 840-1132 limits assumed): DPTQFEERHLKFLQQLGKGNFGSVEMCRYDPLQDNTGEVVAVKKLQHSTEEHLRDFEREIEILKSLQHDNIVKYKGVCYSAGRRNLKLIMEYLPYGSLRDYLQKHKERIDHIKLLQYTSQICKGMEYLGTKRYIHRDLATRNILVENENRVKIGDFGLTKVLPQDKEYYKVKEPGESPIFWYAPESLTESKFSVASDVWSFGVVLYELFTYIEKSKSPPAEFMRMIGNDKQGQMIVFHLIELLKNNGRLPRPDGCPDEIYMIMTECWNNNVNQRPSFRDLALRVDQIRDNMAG
Outline: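 Competition binding: DNA-tagged kinase (T7 phage or HEK-293-expressed), immobilized biotinylated ligand beads and compound in SeaBlock/PBS/Tween/DTT buffer, 1 hour at room temperature; bound kinase eluted and quantified by qPCR. Kd from 11-point 3-fold dilution, top 30,000 nM typically, final DMSO 1%.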

T1 sequence (P52333 811-1124 limits assumed): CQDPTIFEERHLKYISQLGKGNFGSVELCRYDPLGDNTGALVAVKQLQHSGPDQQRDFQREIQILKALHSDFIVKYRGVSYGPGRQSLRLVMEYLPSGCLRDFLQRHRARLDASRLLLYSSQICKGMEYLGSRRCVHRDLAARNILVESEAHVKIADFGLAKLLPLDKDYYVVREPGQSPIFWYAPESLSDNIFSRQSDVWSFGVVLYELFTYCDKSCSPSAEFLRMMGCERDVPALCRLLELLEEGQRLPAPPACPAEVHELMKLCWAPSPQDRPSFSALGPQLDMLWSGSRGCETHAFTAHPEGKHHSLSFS

Kd (JAK3) | Kd [1] | Kd (JAK2) | RCK:JAK2 selectivity ratio (JAK2) | Structure (SMILES) | RCK:JAK3 selectivity ratio (JAK3)
< 50 nM | < 50 nM | < 50 nM | D (D represents Kd(JAK2): Kd (RCK)<1) | NC(=O)c1c(Nc2ccc(N3CCCCC3)cn2)n[nH]c1NCc1ccc(O)cc1 [reference compound] | D (D represents Kd (JAK3): Kd(RCK)<1)
> 1000 nM | < 50 nM | > 1000 nM | A (A represents Kd (JAK2): Kd (RCK)>100) | Cc1cc(CNc2[nH]nc(Nc3ccc(-n4cccc4)cc3)c2C(N)=O)cc(C)c1O [Compound 6, 3-((4-(1H-pyrrol-1-yl)phenyl)amino)-5-((4-hydroxy-3,5-dimethylbenzyl)amino)-1H-pyrazole-4-carboxamide] | A (A represents Kd (JAK3): Kd (RCK)>100)
< 50 nM | < 50 nM | < 50 nM | D (D represents Kd(JAK2): Kd (RCK)<1) | NC(=O)c1c(Nc2ccc(N3CCOCC3)nc2)n[nH]c1NCc1ccc(O)cc1 [reference compound] | C (C represents 1<Kd (JAK3): Kd (RCK)<10)
< 50 nM | < 50 nM | < 50 nM | D (D represents Kd(JAK2): Kd (RCK)<1) | NC(=O)c1c(Nc2ccc(N3CCOCC3)cc2)n[nH]c1NCc1ccc(O)cc1 [reference compound] | C (C represents 1<Kd (JAK3): Kd (RCK)<10)
> 1000 nM | 100 to 1000 nM | > 1000 nM | A (A represents Kd (JAK2): Kd (RCK)>100) | Cc1cc(CNc2[nH]nc(Nc3ccc(NC(=O)c4ccc(F)cc4)cc3)c2C(N)=O)cc(C)c1O [Compound 53, 3-((4-(4-fluorobenzamido)phenyl)amino)-5-((4-hydroxy-3,5-dimethylbenzyl)amino)-1H-pyrazole-4-carboxamide] | A (A represents Kd (JAK3): Kd (RCK)>100)
< 50 nM | < 50 nM | < 50 nM | D (D represents Kd(JAK2): Kd (RCK)<1) | CC(=O)Nc1cccc(Nc2n[nH]c(NCc3ccc(O)cc3)c2C(N)=O)c1 [reference compound] | D (D represents Kd (JAK3): Kd(RCK)<1)
< 50 nM | 50 to 100 nM | < 50 nM | D (D represents Kd(JAK2): Kd (RCK)<1) | N#Cc1cccc(Nc2n[nH]c(NCc3ccc(O)cc3)c2C(N)=O)c1 [reference compound] | D (D represents Kd (JAK3): Kd(RCK)<1)
100 to 1000 nM | 100 to 1000 nM | < 50 nM | D (D represents Kd(JAK2): Kd (RCK)<1) | CN(C)c1ccc(Nc2n[nH]c(NCc3ccc(O)cc3)c2C(N)=O)cc1 [reference compound] | C (C represents 1<Kd (JAK3): Kd (RCK)<10)

More lines, now with the values behind:

Structure (SMILES) | Kd (JAK3) | Kd [1] | Kd (JAK2) | RCK:JAK2 selectivity ratio (JAK2) | RCK:JAK3 selectivity ratio (JAK3)
Cc1cc(CNc2[nH]nc(Nc3ccc(N4CCN(C)CC4)c(Cl)c3)c2C(N)=O)cc(C)c1O [Compound 41, 3-((3-chloro-4-(4-methylpiperazin-1-yl)phenyl)amino)-5-((4-hydroxy-3,5-dimethylbenzyl)amino)-1H-pyrazole-4-carboxamide] | > 1000 nM | < 50 nM | 100 to 1000 nM | B (B represents 10<Kd(JAK2): Kd (RCK)<100) | A (A represents Kd (JAK3): Kd (RCK)>100)
Cc1cc(CNc2[nH]nc(Nc3ccc(N4CCN(Cc5ccccc5)CC4)cc3)c2C(N)=O)cc(C)c1O [Compound 31, 3-((4-(4-benzylpiperazin-1-yl)phenyl)amino)-5-((4-hydroxy-3,5-dimethylbenzyl)amino)-1H-pyrazole-4-carboxamide] | > 1000 nM | < 50 nM | > 1000 nM | B (B represents 10<Kd(JAK2): Kd (RCK)<100) | B (B represents 10<Kd (JAK3): Kd (RCK)<100)
Cc1cc(Nc2n[nH]c(NCc3cc(C)c(O)c(C)c3)c2C(N)=O)ccc1N1CCOCC1 [Compound 8, 5-((4-hydroxy-3,5-dimethylbenzyl)amino)-3-((3-methyl-4-morpholinophenyl)amino)-1H-pyrazole-4-carboxamide] | > 1000 nM | 50 to 100 nM | > 1000 nM | B (B represents 10<Kd(JAK2): Kd (RCK)<100) | B (B represents 10<Kd (JAK3): Kd (RCK)<100)
CN(C)C1CCN(c2ccc(Nc3n[nH]c(NCc4ccc(O)cc4)c3C(N)=O)cc2)CC1 [reference compound] | < 50 nM | < 50 nM | < 50 nM | D (D represents Kd(JAK2): Kd (RCK)<1) | D (D represents Kd (JAK3): Kd(RCK)<1)
Cc1cc(CNc2[nH]nc(Nc3ccc(CC#N)cc3)c2C(N)=O)cc(C)c1O [Compound 61, 3-((4-(cyanomethyl)phenyl)amino)-5-((4-hydroxy-3,5-dimethylbenzyl)amino)-1H-pyrazole-4-carboxamide] | > 1000 nM | > 1000 nM | > 1000 nM | C (C represents 1<Kd (JAK2): Kd (RCK)<10) | C (C represents 1<Kd (JAK3): Kd (RCK)<10)
Cc1cc(Nc2n[nH]c(NCc3ccc(O)cc3)c2C(N)=O)cnc1N1CCOCC1 [reference compound] | < 50 nM | < 50 nM | < 50 nM | D (D represents Kd(JAK2): Kd (RCK)<1) | C (C represents 1<Kd (JAK3): Kd (RCK)<10)
CC1CCN(C2CCN(c3ccc(Nc4n[nH]c(NCc5ccc(O)cc5)c4C(N)=O)cc3)CC2)CC1 [reference compound] | < 50 nM | < 50 nM | < 50 nM | C (C represents 1<Kd (JAK2): Kd (RCK)<10) | D (D represents Kd (JAK3): Kd(RCK)<1)
Cc1cc(CNc2[nH]nc(Nc3ccc(CN4CCOCC4)cc3)c2C(N)=O)cc(C)c1O [Compound 51, 5-((4-hydroxy-3,5-dimethylbenzyl)amino)-3-((4-(morpholinomethyl)phenyl)amino)-1H-pyrazole-4-carboxamide] | > 1000 nM | < 50 nM | 100 to 1000 nM | B (B represents 10<Kd(JAK2): Kd (RCK)<100) | B (B represents 10<Kd (JAK3): Kd (RCK)<100)
Cc1cc(CNc2[nH]nc(Nc3ccc(N4CCN(C(C)C)CC4)c(Cl)c3)c2C(N)=O)cc(C)c1O [Compound 17, 3-((3-chloro-4-(4-isopropylpiperazin-1-yl)phenyl)amino)-5-((4-hydroxy-3,5-dimethylbenzyl)amino)-1H-pyrazole-4-carboxamide] | 100 to 1000 nM | < 50 nM | 100 to 1000 nM | A (A represents Kd (JAK2): Kd (RCK)>100) | A (A represents Kd (JAK3): Kd (RCK)>100)
Cc1cc(CNc2[nH]nc(Nc3ccc(N4CCOCC4)c(Cl)c3)c2C(N)=O)cc(C)c1O [Compound 2, 3-((3-chloro-4-morpholinophenyl)amino)-5-((4-hydroxy-3,5-dimethylbenzyl)amino)-1H-pyrazole-4-carboxamide] | > 1000 nM | < 50 nM | 100 to 1000 nM | B (B represents 10<Kd(JAK2): Kd (RCK)<100) | A (A represents Kd (JAK3): Kd (RCK)>100)
NC(=O)c1c(Nc2ccc(F)cc2)n[nH]c1NCc1ccc(O)cc1 [reference compound] | < 50 nM | < 50 nM | < 50 nM | D (D represents Kd(JAK2): Kd (RCK)<1) | D (D represents Kd (JAK3): Kd(RCK)<1)
NC(=O)c1c(Nc2ccc(-c3cc[nH]n3)cc2)n[nH]c1NCc1ccc(O)cc1 [reference compound] | < 50 nM | < 50 nM | < 50 nM | D (D represents Kd(JAK2): Kd (RCK)<1) | C (C represents 1<Kd (JAK3): Kd (RCK)<10)
NC(=O)c1c(Nc2ccc(N3CCC(N4CCCC4)CC3)nc2)n[nH]c1NCc1ccc(O)cc1 [reference compound] | < 50 nM | < 50 nM | < 50 nM | D (D represents Kd(JAK2): Kd (RCK)<1) | C (C represents 1<Kd (JAK3): Kd (RCK)<10)
COc1cccc(C(=O)Nc2ccc(Nc3n[nH]c(NCc4ccc(O)cc4)c3C(N)=O)cc2)c1 [reference compound] | < 50 nM | < 50 nM | < 50 nM | C (C represents 1<Kd (JAK2): Kd (RCK)<10) | B (B represents 10<Kd (JAK3): Kd (RCK)<100)
C[C@@H]1CN(c2ccc(Nc3n[nH]c(NCc4ccc(O)cc4)c3C(N)=O)cc2)C[C@H](C)O1 [reference compound] | < 50 nM | < 50 nM | < 50 nM | D (D represents Kd(JAK2): Kd (RCK)<1) | C (C represents 1<Kd (JAK3): Kd (RCK)<10)
